The values that follow are results of earlier work, collected in patent US20200147194A1, “PEPTIDE VACCINE AND PEPTIDE VACCINE COMPOSITION FOR CRANIAL NERVE DISEASE” (KEIO UNIVERSITY, priority 2017, published 2020).

For the data set, the system named is pre-alteration peptides (SEQ ID NO:12).

Take “SEQ ID NO:16: SEQ ID NO:12 with leucine substituted for the second amino acid from the N-terminus; HLA-A*02:01-binding, VEGFR-2 (VLAMFFWLL; modified peptide)”: the “CTLs induced by stimulation by the peptide: recognition of pre-alteration peptides (SEQ ID NO:12)” value is “able recognize and damage”.
